Values quoted from earlier work, collected in patent publication US20150150789A1, “ANTIMICROBIAL COMPOSITIONS AND METHODS FOR PREVENTING INFECTION IN SURGICAL INCISION SITES” (TYRX, Inc., priority 2013, published 2015).

Conditions: for solubility in organic solvents: alcohols, ketones, ethers, aldehydes, acetonitrile, acetic acid, methylene chloride, chloroform (novobiocin sodium: alcohol)

Row | SMILES | solubility in organic solvents | solubility in water | solubility in acidic aqueous solutions (acidic aqueous solutions)
1 | CC[C@H]1OC(=O)[C@H](C)[C@@H](O[C@H]2C[C@@](C)(OC)[C@@H](O)[C@H](C)O2)[C@H](C)[C@@H](O[C@@H]2O[C@H](C)C[C@H](N(C)C)[C@H]2O)[C@](C)(O)C[C@@H](C)C(=O)[C@H](C)[C@@H](O)[C@]1(C)O [Erythromycin] | soluble | slightly soluble | –
2 | Oc1c(Cl)cc(Cl)c(Cl)c1Cc1c(O)c(Cl)cc(Cl)c1Cl [Hexachlorophene] | soluble | soluble | –
3 | CCOc1ccc2ccccc2c1C(=O)N[C@@H]1C(=O)N2[C@@H]1SC(C)(C)[C@@H]2C(=O)O [Nafcillin] | readily soluble | readily soluble | –
4 | CO[C@@H]1[C@@H](OC(N)=O)[C@@H](O)[C@H](Oc2ccc3c(O)c(NC(=O)c4ccc(O)c(CC=C(C)C)c4)c(=O)oc3c2C)OC1(C)C [Novobiocin sodium] | freely soluble | freely soluble | –
5 | CO[C@H]1/C=C/O[C@@]2(C)Oc3c(C)c(O)c4c(O)c(c(/C=N/N5CCN(C)CC5)c(O)c4c3C2=O)NC(=O)/C(C)=C\C=C\[C@H](C)[C@H](O)[C@@H](C)[C@@H](O)[C@@H](C)[C@H](OC(C)=O)[C@@H]1C [Rifampin, rifampin] | freely soluble | very slightly soluble | freely soluble
